Results on six compounds are retold here after patent US20230140216A1, “COMBINATION THERAPY FOR TREATING MPS1” (GAIN THERAPEUTICS SA, priority 2020, published 2023).

Molecules are shown by their SMILES.

The target in assay [1] is T1, Recombinant human α-L-iduronidase protein (Homo sapiens, UniProt P35475).
T1 construct: purchased R&D
T1 sequence (P35475 28-653): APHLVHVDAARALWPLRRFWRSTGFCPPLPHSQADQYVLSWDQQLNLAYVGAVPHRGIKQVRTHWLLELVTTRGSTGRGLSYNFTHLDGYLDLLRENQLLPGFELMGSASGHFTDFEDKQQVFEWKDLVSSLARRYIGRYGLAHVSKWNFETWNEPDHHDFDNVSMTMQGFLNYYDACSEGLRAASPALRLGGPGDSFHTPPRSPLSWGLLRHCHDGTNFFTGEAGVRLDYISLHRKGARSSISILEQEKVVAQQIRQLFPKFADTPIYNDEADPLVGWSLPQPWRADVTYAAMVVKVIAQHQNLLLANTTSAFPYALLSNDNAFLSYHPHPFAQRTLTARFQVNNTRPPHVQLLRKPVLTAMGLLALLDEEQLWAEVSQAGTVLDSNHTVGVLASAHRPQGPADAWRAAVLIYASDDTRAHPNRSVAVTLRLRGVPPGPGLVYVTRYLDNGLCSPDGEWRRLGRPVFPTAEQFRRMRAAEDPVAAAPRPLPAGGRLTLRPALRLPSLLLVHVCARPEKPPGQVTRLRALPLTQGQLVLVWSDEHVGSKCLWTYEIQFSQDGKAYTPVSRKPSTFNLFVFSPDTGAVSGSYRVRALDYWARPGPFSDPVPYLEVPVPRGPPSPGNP
Put plainly: Differential scanning fluorimetry (DSF) thermal stabilization.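 Also: Classes count stabilization of α-L-iduronidase despite the GALC label.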 The format is binding. Conditions: ΔTm class. The essentials: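 Purified recombinant human α-L-iduronidase (final 0.75 µM) in 100 mM Hepes, 20 mM MgCl2, pH 7 with SYPRO Orange was heated with compounds (final 1% DMSO). Thermal denaturation was followed by probe fluorescence during a temperature ramp, and stabilization expressed as ΔTm, binned into four categories (A–D).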
Background: Differential scanning fluorimetry follows unfolding on heating by fluorescence.

Assay [2] addresses T2, ALDURAZYME (laronidase, IDUA) (Homo sapiens, UniProt P35475).
T2 construct: purchased ALDURAZYME®
T2 sequence (P35475 26-653 limits assumed): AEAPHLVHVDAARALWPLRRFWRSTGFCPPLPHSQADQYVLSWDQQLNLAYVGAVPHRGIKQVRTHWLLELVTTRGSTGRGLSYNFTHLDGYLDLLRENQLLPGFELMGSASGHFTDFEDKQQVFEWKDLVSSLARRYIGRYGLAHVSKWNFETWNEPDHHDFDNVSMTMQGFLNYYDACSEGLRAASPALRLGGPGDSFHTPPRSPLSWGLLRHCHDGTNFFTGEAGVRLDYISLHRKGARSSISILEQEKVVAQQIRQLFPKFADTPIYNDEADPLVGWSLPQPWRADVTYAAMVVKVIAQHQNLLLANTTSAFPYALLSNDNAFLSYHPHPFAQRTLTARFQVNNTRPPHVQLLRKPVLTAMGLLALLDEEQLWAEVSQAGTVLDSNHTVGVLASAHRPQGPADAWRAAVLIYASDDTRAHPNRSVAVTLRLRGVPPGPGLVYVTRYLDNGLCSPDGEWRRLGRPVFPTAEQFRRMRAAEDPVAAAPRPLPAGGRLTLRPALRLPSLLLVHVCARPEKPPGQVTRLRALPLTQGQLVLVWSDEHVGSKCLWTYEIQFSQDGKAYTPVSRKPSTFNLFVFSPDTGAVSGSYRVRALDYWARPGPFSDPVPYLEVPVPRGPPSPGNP
Put plainly: Denaturation prevention assay with ALDURAZYME
The following applies: 30 µM compound, pH 7, 37° C. Type of assay: biochemical. The procedure: (§1) Briefly, recombinant human α-L-iduronidase protein (obtained in the Institute of Biotechnology and Biomedicine in the UAB, Bellaterra, Spain) was combined at a final concentration of 1 µM with 5X of SYPRO Orange and 30 µM of the corresponding compound in a final reaction volume of 25 µL in 100 mM Hepes 20 mM MgCl2 pH 7 buffer. Reactions were incubated at 37° C. and SYPRO Orange fluorescence intensity was monitored at the indicated time points using Glomax® Discover Microplate Reader from Promega (Madison, WI, USA).
Compounds of Examples 8, 39, 40, 54, and 72 were also tested as described above, except that ALDURAZYME® was used instead of the recombinant human α-L-iduronidase protein (obtained in the Institute of Biotechnology and Biomedicine in the UAB, Bellaterra, Spain).

The target of assay [3] is T3, Recombinant human α-L-iduronidase protein (Homo sapiens, UniProt P35475).
T3 construct: Ala26-Pro653 with a C-terminal 10_His tag; 10xHis (C); host or cells: HEK293f (stated in b1366 for the UAB protein)
T3 sequence (P35475 26-653): T2 sequence (P35475 26-653 limits assumed)
Put plainly: Denaturation prevention assay in neutral pH buffer. The format is biochemical. Conditions: 500 µM reference compound, pH 7, 37° C. On the procedure: The capacity of Compounds of the Disclosure to stabilize α-L-iduronidase in neutral pH buffer was assessed using the denaturation prevention assay.
as §1
The compound referred to as Compound A throughout this specification is the compound of Example 8 described above. […] (T=37° C.).

With `CCN(CC(=O)Nc1c(Cl)cccc1Cl)Cc1nc2ccsc2c(=O)[nH]1` [Example 8, N-(2,6-dichlorophenyl)-2-(ethyl((4-oxo-3,4-dihydrothieno[3,2-d]pyrimidin-2-yl)methyl)amino)acetamide], the “DSF Activity range” value in assay [1] (commercially available Examples 8-37) was “A (ΔTm GALC > 1 is shown as A)”. In assay [2], the “prevention of IDUA denaturation” value is “prevent IDUA denaturation”. For the compound `Cc1csc2c(=O)[nH]c(CN(C)CC(=O)N3CCc4ccccc43)nc12` [Example 39], the “DSF Activity range” value in assay [1] (synthetized Examples 38-94) was “B (ΔTm GALC between 0.5 and 1 is shown as B)”. Moreover, the “prevention of IDUA denaturation” value in assay [2] is reported as “prevent IDUA denaturation”. On to `Cc1csc2c(=O)[nH]c(CN(C)CC(=O)N(C)c3ccc(Cl)c(Cl)c3)nc12` [Example 40, 2-(N-((3,4-dihydro-7-methyl-4-oxothieno[3,2-d]pyrimidin-2-yl)methyl)-N-methylamino)-N-(3,4-dichlorophenyl)-N-methylacetamide], for which the “DSF Activity range” value in assay [1] (synthetized Examples 38-94) is “B (ΔTm GALC between 0.5 and 1 is shown as B)”. The “prevention of IDUA denaturation” value in assay [2] is recorded as “prevent IDUA denaturation”. Regarding `CCCN(CC(=O)N(C)c1ccccc1Cl)Cc1nc2cc(C)sc2c(=O)[nH]1` [Example 54], the “DSF Activity range” value in assay [1] (synthetized Examples 38-94) is “B (ΔTm GALC between 0.5 and 1 is shown as B)”. Moreover, the “prevention of IDUA denaturation” value in assay [2] was “prevent IDUA denaturation”. Turning to `CN(CC(=O)N1CCc2ccccc21)Cc1nc2cc(F)ccc2c(=O)[nH]1` [Example 72, 7-fluoro-2-(((2-(indolin-1-yl)-2-oxoethyl)(methyl)amino)methyl)quinazolin-4(3H)-one], the “DSF Activity range” value in assay [1] (synthetized Examples 38-94) was “B (ΔTm GALC between 0.5 and 1 is shown as B)”. In addition, in assay [2], the “prevention of IDUA denaturation” value was “prevent IDUA denaturation”. In the case of `O=C[C@H](O)[C@@H](O)[C@H](O)[C@@H](O)C(=O)O` [L-iduronic acid, reference compound], the “prevention of pH-induced IDUA denaturation” value in assay [3] was “minimal effect”.
